According to the supplement of paper PMC10331698:
± gives the standard deviation of the averaged measurements.

Key:
Experiment in all cases: level (log10 ratio to DMSO vehicle control); higher = higher biomarker level / cell amount than vehicle control
Conditions in all cases: in DMSO
Hexafluoroglutaric acid = compound: O=C(O)C(F)(F)C(F)(F)C(F)(F)C(=O)O [Hexafluoroglutaric acid]
Protocol: (§1)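 BioMAP Diversity Plus panel of 12 human primary cell co-culture systems (3C, 4H, LPS, SAg, BT, BF4T, BE3C, CASM3C, HDF3CGF, KF3CT, MyoF, Mphg). Compounds were added 1 h before stimulation and left for 24 h (MyoF 48 h; BT 72 h for soluble read-outs or 6 d for IgG). Biomarkers were read by ELISA, cytotoxicity by SRB, PBMC viability and proliferation by Alamar Blue. Each well value was divided by the mean of 8 DMSO control wells on the same plate and log10 transformed; duplicate blinded samples were tested at 4 concentrations.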

[1] = compound: O=S(=O)(O)C(F)(F)C(F)(F)C(F)(F)C(F)(F)F [Perfluorobutanesulfonic acid]
Protocol: as §1

[2] = compound: C=C(C)C(=O)OCC(F)(F)C(F)(F)C(F)(F)C(F)(F)C(F)(F)C(F)(F)C(F)(F)F
Protocol: as §1

Row | Test System | level (log10) (Hexafluoroglutaric acid; 6700 nM) | level (log10) (Hexafluoroglutaric acid; 20000 nM) | level (log10) (Hexafluoroglutaric acid; 60000 nM) | level (log10) ([1]; 6700 nM) | level (log10) ([1]; 20000 nM) | level (log10) ([1]; 60000 nM) | level (log10) ([2]; 6700 nM) | level (log10) ([2]; 20000 nM)
1 | 3C:CXCL9/MIG | -0.014 ± 0.0085 | -0.005 ± 0.0042 | -0.0075 ± 0.0035 | 0.009 ± 0.016 | 0.009 ± 0.017 | 0.0175 ± 0.0021 | -0.001 ± 0.017 | 0.015 ± 0.0099
2 | BF4T:CD54/ICAM-1 | 0.0025 ± 0.005 | -0.01 ± 0.0057 | 0.006 ± 0.011 | -0.027 ± 0.0085 | -0.002 ± 0.0014 | -0.0115 ± 0.019 | -0.0015 ± 0.016 | -0.0075 ± 0.0064
3 | BF4T:CD106/VCAM-1 | -0.0055 ± 0.023 | -0.0095 ± 0.0078 | -0.002 ± 0.017 | -0.0175 ± 0.0078 | -0.0325 ± 0.046 | -0.021 ± 0.0028 | 0.015 ± 0.014 | 0.0105 ± 0.05
4 | BE3C:EGFR | -0.0055 ± 0.0035 | -0.0175 ± 0.005 | 0.0025 ± 0.012 | -0.0045 ± 0.021 | 0 ± 0.018 | 0.0005 ± 0.0092 | -0.0175 ± 0.011 | -0.0295 ± 0.011
5 | 4H:VEGFR2 | 0.0005 ± 0.016 | -0.04 ± 0.0099 | -0.0095 ± 0.0078 | -0.049 ± 0.04 | -0.0215 ± 0.026 | -0.012 ± 0.0071 | 0.0165 ± 0.0064 | 0.0365 ± 0.05
6 | 4H:CCL26/Eotaxin-3 | 0.0155 ± 0.035 | 0.0155 ± 0.013 | 0.0235 ± 0.0078 | -0.0025 ± 0.054 | -0.001 ± 0.051 | -0.048 ± 0.028 | 0.0385 ± 0.043 | 0.0315 ± 0.047
7 | BF4T:Keratin 8/18 | -0.006 ± 0.013 | -0.0145 ± 0.015 | 0.0005 ± 0.00071 | -0.0245 ± 0.028 | -0.0145 ± 0.011 | -0.0045 ± 0.015 | 0.014 ± 0.0028 | -0.003 ± 0.0014
8 | BT:sIL-17A | 0.02 ± 0.073 | -0.0205 ± 0.21 | -0.0585 ± 0.12 | -0.0215 ± 0.14 | 0.157 ± 0.016 | 0.021 ± 0.2 | 0.0535 ± 0.073 | -0.0375 ± 0.22
9 | LPS:CCL2/MCP-1 | -0.0135 ± 0.026 | -0.012 ± 0.011 | -0.004 ± 0.013 | -0.0285 ± 0.057 | -0.021 ± 0.027 | -0.035 ± 0.0014 | 0.007 ± 0.0071 | 0.017 ± 0.0085
10 | SAg:CXCL9/MIG | -0.0015 ± 0.00071 | -0.012 ± 0.0042 | -0.0005 ± 0.005 | -0.0105 ± 0.00071 | 0.002 ± 0.014 | -0.002 ± 0.02 | -0.003 ± 0.017 | 0.009 ± 0.0014
11 | 3C:SRB | -0.004 ± 0.0014 | -0.005 ± 0.014 | 0.0075 ± 0.028 | 0.004 ± 0.0099 | -0.0095 ± 0.0035 | -0.021 ± 0.0042 | 0.0095 ± 0.015 | -0.0105 ± 0.022
12 | BE3C:CXCL8/IL-8 | -0.011 ± 0.014 | -0.0165 ± 0.0064 | -0.011 ± 0.02 | 0.0075 ± 0.035 | 0.013 ± 0.028 | 0.0005 ± 0.0092 | 0.011 ± 0.024 | 0.0275 ± 0.015
13 | BE3C:CXCL9/MIG | 0.001 ± 0.0042 | 0.008 | -0.0055 ± 0.0021 | 0.01 ± 0.034 | 0.0025 ± 0.023 | 0.013 ± 0.0057 | 0.0015 ± 0.00071 | -0.0085 ± 0.0035
14 | BE3C:CD87/uPAR | -0.0045 ± 0.0092 | -0.01 ± 0.014 | -0.0125 ± 0.011 | -0.035 ± 0.0028 | -0.044 ± 0.016 | -0.037 ± 0.027 | 0.0015 ± 0.016 | -0.004 ± 0.023
15 | BT:Secreted IgG | -0.026 ± 0.04 | 0.055 ± 0.013 | 0.019 ± 0.048 | 0.0005 ± 0.00071 | -0.0055 ± 0.023 | -0.016 ± 0.052 | 0.021 ± 0.055 | 0.024 ± 0.013
16 | BE3C:IL-1alpha | -0.014 ± 0.027 | -0.0295 ± 0.005 | -0.0045 ± 0.016 | -0.0175 ± 0.012 | -0.013 ± 0.0085 | -0.0075 ± 0.012 | -0.008 ± 0.013 | 0.0405 ± 0.042
17 | BT:sIL-6 | -0.0105 ± 0.11 | 0.0275 ± 0.021 | -0.0155 ± 0.088 | -0.035 ± 0.061 | 0.004 ± 0.067 | 0.012 ± 0.02 | 0.016 ± 0.0057 | -0.019 ± 0.059
